The experiment concerns the target Adenosine receptor A2a (Rattus norvegicus, UniProt P30543). The experiment can be described thus: Binding affinity was determined in radioligand binding assay at rat striatal Adenosine A2A receptor vs [3H]-CGS- 21680.

Chain of Adenosine receptor A2a (P30543 whole entry): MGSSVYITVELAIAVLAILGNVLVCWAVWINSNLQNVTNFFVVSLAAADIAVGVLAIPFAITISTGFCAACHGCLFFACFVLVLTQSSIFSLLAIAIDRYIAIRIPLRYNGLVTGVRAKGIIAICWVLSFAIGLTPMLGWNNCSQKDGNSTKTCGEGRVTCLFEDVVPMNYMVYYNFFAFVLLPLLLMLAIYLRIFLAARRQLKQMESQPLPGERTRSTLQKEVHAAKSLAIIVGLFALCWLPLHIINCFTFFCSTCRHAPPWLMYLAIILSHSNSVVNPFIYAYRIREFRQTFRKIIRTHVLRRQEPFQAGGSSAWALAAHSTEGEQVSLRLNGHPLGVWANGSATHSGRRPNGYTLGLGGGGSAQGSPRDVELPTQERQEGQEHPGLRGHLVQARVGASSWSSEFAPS

`CCOC(=O)C1C(C)=NC(c2ccccc2)=C(C(=O)OCc2ccccc2)C1C#Cc1ccccc1` (stereo unspecified) [CAS_393594] came in with a Ki above 0.1 µM.

For orientation: Ki means a dissociation constant, usually derived from enzyme kinetics or from competition with a known ligand. Read a high Ki as a looser hold on the target.

The values above are taken from BindingDB's records for doi:10.1021/jm980094b (National Institute of Diabetes, 1998).
